Data on 13 compounds can be found in PubChem BioAssay AID248 (DTP/NCI, 2004).

The test system of the test is L1210 leukemia ip in BDF1 mice, survival T/C. Kind of test: NCI In Vivo Anticancer Drug Screen. Data for tumor model L1210 Leukemia (intraperitoneal) in B6D2F1 (BDF1) mice. As to conditions: endpoint: mean survival time, higher = longer survival. The gist of the method: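 Antitumor effect is assessed in tumor-bearing animals. Survival in the compound arm is compared with a vehicle-dosed control arm and expressed as their quotient.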

The mark [1] stands for this setting: dose: 100.0 mg/kg/injection, schedule: Q04DX003 (ip), vehicle: saline.
[2] abbreviates: dose: 200.0 mg/kg/injection, schedule: Q04DX003 (ip), vehicle: saline.
[3] abbreviates: dose: 50.0 mg/kg/injection, schedule: Q01DX009 (ip), vehicle: saline with Tween-80.
The mark [4] stands for this setting: dose: 100.0 mg/kg/injection, schedule: Q01DX009 (ip), vehicle: saline with Tween-80.
[5] abbreviates: dose: 200.0 mg/kg/injection, schedule: Q01DX009 (ip), vehicle: saline with Tween-80.
The mark [6] stands for this setting: dose: 100.0 mg/kg/injection, schedule: Q04DX003 (ip), vehicle: saline with Tween-80.
[7] abbreviates: dose: 400.0 mg/kg/injection, schedule: Q04DX003 (ip), vehicle: saline with Tween-80.
Where [8] appears, read: dose: 50.0 mg/kg/injection, schedule: Q01DX009 (ip), vehicle: Klucel (hydroxypropylcellulose) (HPC).
The mark [9] stands for this setting: dose: 100.0 mg/kg/injection, schedule: Q01DX009 (ip), vehicle: Klucel (hydroxypropylcellulose) (HPC).
The mark [10] stands for this setting: dose: 200.0 mg/kg/injection, schedule: Q01DX009 (ip), vehicle: Klucel (hydroxypropylcellulose) (HPC).

“And” between values parts separate entries of the source, which are not always exact repeats. Identical values can stand only once. Toxic doses and inconclusive results are not listed.

As to `N/C(=N/N=C/c1cc(Cl)ccc1O)N/N=C\c1cc(Cl)ccc1O`, the T/C was 107 % of control (dose: 15.0 mg/kg/injection, schedule: Q01DX Z (ip), vehicle: methylcellulose (MC)); 104 % of control (dose: 30.0 mg/kg/injection, schedule: Q01DX Z (ip), vehicle: methylcellulose (MC)); 119 % of control (dose: 60.0 mg/kg/injection, schedule: Q01DX Z (ip), vehicle: methylcellulose (MC)); 94 % of control (dose: 60.0 mg/kg/injection, schedule: Q01DX Z (oral), vehicle: methylcellulose (MC)); 108 % of control (dose: 120.0 mg/kg/injection, schedule: Q01DX Z (ip), vehicle: methylcellulose (MC)); 93 % of control (dose: 120.0 mg/kg/injection, schedule: Q01DX Z (oral), vehicle: methylcellulose (MC)). In addition, under “dose: 240.0 mg/kg/injection, schedule: Q01DX Z (oral), vehicle: methylcellulose (MC)”, the T/C is 100 % of control.
Regarding `CCOC(=O)/C=C/P(=O)(OCC)OCC`, the T/C runs as follows: under setting [1], 108 % of control; under setting [2], 94 % of control; (dose: 400.0 mg/kg/injection, schedule: Q04DX003 (ip), vehicle: saline) 96 % of control.
As to `CCOC(=O)Nc1cc(NCc2ccccc2)c(N)c(N)n1`, the T/C is 96 % of control (dose: 100.0 mg/kg/injection, schedule: Q01DX001 (ip), vehicle: saline) and 97 % of control (dose: 200.0 mg/kg/injection, schedule: Q01DX001 (ip), vehicle: saline).
Take `CN(C)/N=C(\CBr)c1ccc(Br)cc1`: the T/C reads like this: under setting [3], 96 % of control; under setting [4], 107 % of control; under setting [5], 89 % of control.
For the compound `CC(C)(C)NC(=O)C1C2C=CC(C2)C1C(=O)NC(C)(C)C` (stereo not drawn), the T/C reads like this: under setting [6], 96 % of control; (dose: 200.0 mg/kg/injection, schedule: Q04DX003 (ip), vehicle: saline with Tween-80) 91 % of control; under setting [7], 91 % of control.
Regarding `CN(CCN(N=O)C(N)=O)[N+](=O)[O-]`, the T/C by setting is: (dose: 100.0 mg/kg/injection, schedule: Q04DX002 (ip), vehicle: other) 98 % of control; (dose: 200.0 mg/kg/injection, schedule: Q04DX002 (ip), vehicle: other) 94 % of control; (dose: 400.0 mg/kg/injection, schedule: Q04DX002 (ip), vehicle: other) 109 % of control.
As for `CC1(C)N=C(N)N=C(N)N1c1ccc(OCC(=O)N2CCOCC2)c(Cl)c1`, the T/C was 98 % of control (dose: 12.5 mg/kg/injection, schedule: Q01DX009 (ip), vehicle: saline); 98 % of control (dose: 25.0 mg/kg/injection, schedule: Q01DX009 (ip), vehicle: saline); 95 % of control (dose: 50.0 mg/kg/injection, schedule: Q01DX009 (ip), vehicle: saline); 101 % of control (dose: 100.0 mg/kg/injection, schedule: Q01DX009 (ip), vehicle: saline).
In the case of `C/C(N=Nc1ccc([N+](=O)[O-])cc1)=N\Nc1ccccc1`, the T/C runs as follows: under setting [8], 102 % of control; under setting [9], 107 % of control; under setting [10], 112 % of control; (dose: 400.0 mg/kg/injection, schedule: Q01DX009 (ip), vehicle: Klucel (hydroxypropylcellulose) (HPC)) 97 % of control.
With `CC(C)(C)NC(=O)C(Cl)(Cl)Cl`, the T/C is, setting by setting: (dose: 31.25 mg/kg/injection, schedule: Q01DX009 (ip), vehicle: Klucel (hydroxypropylcellulose) (HPC)) 98 % of control; (dose: 62.5 mg/kg/injection, schedule: Q01DX009 (ip), vehicle: Klucel (hydroxypropylcellulose) (HPC)) 107 % of control; (dose: 125.0 mg/kg/injection, schedule: Q01DX009 (ip), vehicle: Klucel (hydroxypropylcellulose) (HPC)) 109 % of control; (dose: 250.0 mg/kg/injection, schedule: Q01DX009 (ip), vehicle: Klucel (hydroxypropylcellulose) (HPC)) 94 % of control.
On to `CCOC(=O)NC1=C(Cl)C(=O)C(NC(=O)OCC)=C(Cl)C1=O`, for which the T/C by setting is: (dose: 100.0 mg/kg/injection, schedule: Q04DX003 (ip), vehicle: Klucel (hydroxypropylcellulose) (HPC)) 102 % of control; (dose: 200.0 mg/kg/injection, schedule: Q04DX003 (ip), vehicle: Klucel (hydroxypropylcellulose) (HPC)) 92 % of control.
Regarding `COC(=O)N1c2ccccc2C=CC1C#N` (stereo not drawn), the T/C was 151 % of control (dose: 44.0 mg/kg/injection, schedule: Q04DX002 (ip), vehicle: saline with Tween-80); 109 % of control (dose: 44.0 mg/kg/injection, schedule: Q04DX003 (ip), vehicle: saline with Tween-80); 108 % of control (dose: 44.0 mg/kg/injection, schedule: Q04DX003 (ip), vehicle: saline); 104 % of control under setting [3]; 173 % of control (dose: 66.0 mg/kg/injection, schedule: Q04DX002 (ip), vehicle: saline with Tween-80); 103 % of control (dose: 66.0 mg/kg/injection, schedule: Q04DX003 (ip), vehicle: saline with Tween-80). Also, the T/C is 101 % of control (dose: 66.0 mg/kg/injection, schedule: Q04DX003 (ip), vehicle: saline); 106 % of control (dose: 100.0 mg/kg/injection, schedule: Q01DX001 (ip), vehicle: saline with Tween-80); 96 % of control under setting [4]; 189 % of control (dose: 100.0 mg/kg/injection, schedule: Q04DX002 (ip), vehicle: saline with Tween-80); 109 % of control and 209 % of control under setting [6]; 106 % of control under setting [1]. Also, the T/C is, setting by setting: (dose: 200.0 mg/kg/injection, schedule: Q01DX001 (ip), vehicle: saline with Tween-80) 106 % of control; under setting [5], 102 % of control; (dose: 200.0 mg/kg/injection, schedule: Q04DX002 (ip), vehicle: saline with Tween-80) 156 % of control; under setting [2], 111 % of control; (dose: 400.0 mg/kg/injection, schedule: Q01DX001 (ip), vehicle: saline with Tween-80) 104 % of control; under setting [7], 96 % of control.
As to `Nc1nc(SN=Nc2ccc(S(N)(=O)=O)cc2)c2[nH]cnc2n1`, the T/C is 110 % of control (dose: 0.16 mg/kg/injection, schedule: Q01DX Z (ip), vehicle: other); 111 % of control (dose: 1.5 mg/kg/injection, schedule: Q04DX003 (ip), vehicle: saline with Tween-80); 165 % of control (dose: 2.0 mg/kg/injection, schedule: Q01DX Z (ip), vehicle: methylcellulose (MC)); 154 % of control (dose: 3.0 mg/kg/injection, schedule: Q01DX Z (ip), vehicle: methylcellulose (MC)); 153 % of control (dose: 5.0 mg/kg/injection, schedule: Q01DX Z (ip), vehicle: other); 155 % of control (dose: 12.0 mg/kg/injection, schedule: Q04DX003 (ip), vehicle: saline with Tween-80). For the same compound, the T/C runs as follows: (dose: 17.0 mg/kg/injection, schedule: Q04DX003 (ip), vehicle: saline with Tween-80) 158 % of control and 159 % of control; (dose: 20.0 mg/kg/injection, schedule: Q01DX Z (ip), vehicle: methylcellulose (MC)) 124 % of control; (dose: 25.0 mg/kg/injection, schedule: Q04DX003 (ip), vehicle: saline with Tween-80) 151 % of control and 190 % of control; (dose: 37.0 mg/kg/injection, schedule: Q04DX003 (ip), vehicle: saline with Tween-80) 155 % of control and 164 % of control; (dose: 68.0 mg/kg/injection, schedule: Q01DX Z (ip), vehicle: other) 109 % of control; (dose: 102.0 mg/kg/injection, schedule: Q01DX Z (ip), vehicle: other) 102 % of control.
For `CC1=CC2c3c([nH]c(=S)[nH]c3=O)OC(C)(C)C2CC1` (stereo not drawn), the T/C is 99 % of control under setting [8], 96 % of control under setting [9] and 96 % of control under setting [10].
